Measurements from US10308617B2, “Triazole benzamide derivatives and the compositions and methods of treatment regarding the same” (An2H Discovery Limited, priority 2016, dated 2019).
pIC50: −log10 of the molar value. Read-outs that look alike come from different tables or passages of the source. One block for each molecule: values may come before it.

How the values were obtained:
[1] = Oral Bioavailability (PO) and Pharmacokinetics Assay; assay type: in vivo, Sprague-Dawley rats; details: rat; for Cmax: read-out: C0 or Cmax (ng/mL): Cmax; for half-life: read-out: T½ (converted)
[2] = Microsomal Stability Assay, human liver microsomes; assay type: in vitro ADME; details: pH 7.4, 1 μM compound, 1.0 mg/mL microsome, NADPH, read-out: HLM t1/2
Procedure: Compounds were also tested for metabolic stability in both rat liver microsomes (RLM) and human liver microsomes (HLM) and their half-life calculated (See Table 5). The assay was performed as follows. The total volume for each incubation was 250 μL. A 100 μM DMSO solution of compound (diluted from 10 mM stock solution) was spiked into 50 mM KH2PO4 (pH 7.4) buffer containing liver microsome at a concentration of 1.0 mg/mL. The reaction was initiated by the addition of 50 μL of 1 mM NADPH. The final concentration of each compound was 1 μM (1% DMSO). The positive controls, phenacetin for CYP1A2, diclofenac for CYP2C9, omeprazole for CYP2C19, dextromethorphan for CYP2D6 and midazolam for CYP3A4 were added to a separate tube with the final substrate concentrations of 1 μM (1% DMSO) for evaluating the enzyme activities in the liver microsomes. At 0, 15, 30 and 60 min, an aliquot of 15 μL reaction mixtures were removed and 200 μL of methanol (with internal standard of 25 ng/mL propranolol) was added to quench the reaction. The resulting mixture was centrifuged and supernatant was used for LC-MS/MS analysis.
The signals for each compound, or the metabolites for the probe substrates and the internal standard were integrated and the peak area ratios to internal standard were generated. Percent parent remaining at a specified timepoint was calculated based on the peak area ratios at time 0 (as 100%) for in vitro metabolic stability studies in liver microsome and hepatocyte. The observed rate constant (kobs) for the metabolism of substrates was calculated by plotting the natural log of percentage substrate remaining versus time of incubation with the slope being kobs. The half-life (T1/2) was calculated according to the following equation: T1/2=0.693/kobs

SKOV3 (ovarian) = test: Cancer Cell Proliferation Assay (acid phosphatase, 72 hrs); assay type: cell-based; details: Homo sapiens, SK-OV-3, read-out: IC50 on cancer cell line proliferation, SKOV3
Procedure: (§1) Measurement of the inhibitive effect of compounds on cancer cell proliferation was performed. Various cell lines were tested, including HCT-116 (colon); A549 (lung); TOV-21G (ovarian); Calu-6 (lung); H1703 (Lung); LS-174T (colon); and SKOV3 (ovarian). The assays were performed under the following conditions: Cells are harvested at a concentration of 4×10^4 cells/ml in media. Volumes of 100 μl/well of these cell suspensions were added to a 96 well plate using a multichannel pipette. Plates were gently agitated to ensure an even dispersion of cells over a given plate. Cells were then incubated at 37° C., 5% CO^2 overnight. Following this, 100 μl of compound at varying concentrations was added to wells in triplicate. Control wells are those with 100 μl media containing 0.33% DMSO added to cell suspension (this is the equivalent volume of DMSO found in the highest concentration of drug). Plates were then gently agitated, as above, and incubated at 37° C., 5% CO2 for 72 hrs (control wells have reached 80-90% confluency). Assessment of cell proliferation in the presence of the compound was determined by the acid phosphatase assay.
(§2) Following the incubation period of 72 hrs, media was removed from the plates. Each well on the plate was washed twice with 100 μl PBS. This was then removed and 100 μl of freshly prepared phosphatase substrate (10 mM p-nitrophenol phosphate in 0.1M sodium acetate, 0.1% triton X-100, pH 5.5) was added to each well. The plates were then incubated in the dark at 37° C. for 2 hours. Colour development was monitored during this time. The enzymatic reaction was stopped by the addition of 50 μl of 1N NaOH. The plate was read in a dual beam plate reader at 405 nm with a reference wavelength of 620 nm. The absorbance reading of the latter is subtracted from the former, and the effect of the drug on cell proliferation was then measured as a percentage against the control cells (DMSO), which is taken as 0% inhibition. […] FIG. 14 A-K also show the % inhibition curves of various compounds on these cancer cell lines with the 72 hrs proliferation assay.

H1703 (Lung) = test: as above; assay type: cell-based; details: Homo sapiens, NCI-H1703, read-out: IC50 on cancer cell line proliferation, H1703
Procedure: as §1, §2

A549 (lung) = test: as above; assay type: cell-based; details: Homo sapiens
Procedure: as §1, §2

HCT-116 (colon) = test: as above; assay type: cell-based; details: Homo sapiens, read-out: IC50 on cancer cell line proliferation, HCT-116
Procedure: as §1, §2

LS-174T (colon) = test: as above; assay type: cell-based; details: Homo sapiens, LS174T, read-out: IC50 on cancer cell line proliferation, LS-174T
Procedure: as §1, §2

TOV-21G (ovarian) = test: as above; assay type: cell-based; details: Homo sapiens, TOV21G, read-out: IC50 on cancer cell line proliferation, TOV-21G
Procedure: as §1, §2

Calu-6 (lung) = test: as above; assay type: cell-based; details: Homo sapiens, read-out: IC50 on cancer cell line proliferation, Calu6
Procedure: as §1, §2

[3] = male, Sprague-Dawley, plasma, PO 5 mg/kg
[4] = male, Sprague-Dawley, plasma, PO 5 mg/kg, read-out: F (%) oral bioavailability
[5] = male, Sprague-Dawley, plasma, iv, 1 mg/kg, IV bolus 1 mg/kg
[6] = male, Sprague-Dawley, plasma, po, 5 mg/kg, PO 5 mg/kg
[7] = read-out: IC50 on cancer cell line proliferation, A549
[8] = male, Sprague-Dawley, plasma, IP 3 mg/kg

SMILES: Cc1ccccc1C(=O)Nc1nc(-c2ccccn2)nn1-c1ccc(OC(F)(F)F)cc1 [Compound H3]
pIC50 (SKOV3 (ovarian)): 6.13 | pIC50 (H1703 (Lung)): 5.52 | pIC50 (A549 (lung); [7]): 6.08 | pIC50 (HCT-116 (colon)): 6.31 | pIC50 (Calu-6 (lung)): 5.62 | pIC50 (LS-174T (colon)): 6.30 | pIC50 (TOV-21G (ovarian)): 6.12

SMILES: Cc1ccccc1C(=O)Nc1nc(-c2ccccn2)nn1-c1ccccc1 [Compound Q2]
pIC50 (SKOV3 (ovarian)): 5.68 | pIC50 (H1703 (Lung)): ~5.60 | pIC50 (A549 (lung); [7]): 5.67 | pIC50 (HCT-116 (colon)): 5.79 | pIC50 (LS-174T (colon)): 5.64 | pIC50 (TOV-21G (ovarian)): 5.80

SMILES: Cc1ccccc1C(=O)Nc1nc(NC(=O)c2ccccc2C)n(-c2ccc(Cl)cc2)n1 [Compound Q3]
pIC50 (SKOV3 (ovarian)): 5.69 | pIC50 (H1703 (Lung)): 5.81 | pIC50 (A549 (lung); [7]): 6.21 | pIC50 (HCT-116 (colon)): 6.53 | pIC50 (Calu-6 (lung)): 6.71 | pIC50 (LS-174T (colon)): 5.76 | pIC50 (TOV-21G (ovarian)): 6.16

SMILES: Cc1ccc(-c2nc(NC(=O)c3ccccc3C)n(-c3ccccc3)n2)nc1 [Compound R3, 2-methyl-N-(3-(5-methylpyridin-2-yl)-1-phenyl-1H-1,2,4-triazol-5-yl)benzamide]
pIC50 (SKOV3 (ovarian)): 5.57 | pIC50 (H1703 (Lung)): 5.58 | pIC50 (A549 (lung); [7]): 5.70 | pIC50 (HCT-116 (colon)): 5.89 | pIC50 (Calu-6 (lung)): 5.47 | pIC50 (LS-174T (colon)): 5.77 | pIC50 (TOV-21G (ovarian)): 5.92

SMILES: Cc1ccccc1C(=O)Nc1nc(-c2ncccc2C)nn1-c1ccccc1 [Compound S3, 2-methyl-N-(3-(3-methylpyridin-2-yl)-1-phenyl-1H-1,2,4-triazol-5-yl)benzamide]
pIC50 (SKOV3 (ovarian)): 6.19 | pIC50 (H1703 (Lung)): 5.57 | pIC50 (A549 (lung); [7]): 6.06 | pIC50 (HCT-116 (colon)): 6.32 | pIC50 (Calu-6 (lung)): 5.63 | pIC50 (LS-174T (colon)): 6.28 | pIC50 (TOV-21G (ovarian)): 6.25

SMILES: O=C(/C=C/c1ccccc1)Nc1nc(NC(=O)c2ccccc2)nn1-c1ccccn1 [Compound U1]
half-life at 1 μM [2]: 0.115 h

Next, values leading:

bioavailability ([1]; male, Sprague-Dawley, plasma, IV bolus 1 mg/kg, read-out: F (%)): 100% | Tmax [1, 3]: 0.417 h | Cmax [1, 3]: 249 ng/mL | bioavailability [1, 4]: 6.85% | half-life [1, 5]: 0.85 h | half-life [1, 6]: 1.6 h | T½ ([1]; PO 5 mg/kg, 5 mg/kg): 1.62 h | half-life at 1 μM [2]: 2.52 h
SMILES: O=C(Nc1nc(NC(=O)c2ccccc2)n(-c2ccccc2)n1)c1ccccc1 [Compound A, N,N′-(1-phenyl-1H-1,2,4-triazole-3,5-diyl)dibenzamide]

pIC50 (SKOV3 (ovarian)): 5.50 | pIC50 (H1703 (Lung)): 5.59 | pIC50 (A549 (lung); [7]): 5.65 | pIC50 (HCT-116 (colon)): 5.78 | pIC50 (LS-174T (colon)): 5.66 | pIC50 (TOV-21G (ovarian)): 5.76 | Tmax [1, 3]: 0.38 h | Cmax [1, 3]: 50.5 ng/mL | bioavailability [1, 4]: 2.4% | half-life [1, 5]: 0.71 h | half-life [1, 6]: 2.3 h | Oral Bioavilability (PO PK) F [1]: F = 2% | half-life at 1 μM [2]: 1.3 h
SMILES: O=C(/C=C/c1ccccc1)Nc1nc(NC(=O)c2ccccc2)nn1-c1ccccc1 [Compound C, N-(5-cinnamamido-1-phenyl-1H-1,2,4-triazol-3-yl)benzamide]

pIC50 (SKOV3 (ovarian)): 5.48 | pIC50 (A549 (lung); [7]): 5.58 | pIC50 (HCT-116 (colon)): 5.64 | pIC50 (LS-174T (colon)): 5.57 | pIC50 (TOV-21G (ovarian)): 5.65 | AUC(0-t) [1, 8]: 9590 ng·h/mL | Tmax [1, 8]: 1.3 h | Cmax [1, 8]: 1470 ng/mL | bioavailability ([1]; male, Sprague-Dawley, plasma, IP 3 mg/kg, read-out: F systemic bioavailability): 75% | half-life ([1]; male, Sprague-Dawley, plasma, ip, 3 mg/kg, IP 3 mg/kg): 3.2 h | half-life [1, 5]: 2.5 h | half-life at 1 μM [2]: 9.63 h
SMILES: Cc1ccccc1C(=O)Nc1nc(NC(=O)c2ccccc2C)n(-c2ccccc2)n1 [Compound F, 2-methyl-N-[5-[(2-methylbenzoyl)amino]-1-phenyl-1,2,4-triazol-3-yl]benzamide]

Tmax [1, 3]: 1.33 h | Cmax [1, 3]: 91 ng/mL | bioavailability [1, 4]: 6.2% | half-life [1, 5]: 0.69 h | half-life [1, 6]: 1.7 h | Oral Bioavilability (PO PK) F [1]: F = 6%
SMILES: Cc1ccccc1C(=O)Nc1nc(NC(=O)c2ccccc2)n(-c2ccccc2)n1 [Compound H]

pIC50 (SKOV3 (ovarian)): 5.50 | pIC50 (H1703 (Lung)): 5.46 | pIC50 (A549 (lung); [7]): 5.60 | pIC50 (HCT-116 (colon)): 5.72 | pIC50 (LS-174T (colon)): 5.51 | pIC50 (TOV-21G (ovarian)): 5.87 | Tmax [1, 3]: 0.42 h | Cmax [1, 3]: 52.4 ng/mL | bioavailability [1, 4]: 4% | half-life [1, 5]: 0.6 h | half-life [1, 6]: 2.1 h | Oral Bioavilability (PO PK) F [1]: F = 4%
SMILES: Cc1ccccc1C(=O)Nc1nc(NC(=O)c2ccccc2)nn1-c1ccccc1 [Compound K, N-(5-benzamido-2-phenyl-1,2,4-triazol-3-yl)-2-methyl-benzamide]

pIC50 (SKOV3 (ovarian)): 5.91 | pIC50 (A549 (lung); A549, 72 h, heading: IC50 on cancer cell line proliferation): 5.81 | pIC50 (HCT-116 (colon)): 6.03 | pIC50 (Calu-6 (lung)): 5.64 | pIC50 (LS-174T (colon)): 5.82 | pIC50 (TOV-21G (ovarian)): 6.00 | half-life at 1 μM [2]: 0.642 h
SMILES: O=C(Nc1nc(Nc2ncnc3ccccc23)n(-c2ccccc2)n1)c1ccccc1 [Compound L, N-[1-phenyl-5-(quinazolin-4-ylamino)-1,2,4-triazol-3-yl]benzamide]

pIC50 (SKOV3 (ovarian)): 5.93 | pIC50 (H1703 (Lung)): 5.33 | pIC50 (A549 (lung); [7]): 6.05 | pIC50 (HCT-116 (colon)): 6.45 | pIC50 (Calu-6 (lung)): 5.48 | pIC50 (LS-174T (colon)): 6.03 | pIC50 (TOV-21G (ovarian)): 6.31
SMILES: O=C(Nc1nc(-c2ccccn2)nn1-c1ccccc1)c1ccccc1 [Compound Y1, N-(1-phenyl-3-(pyridin-2-yl)-1H-1,2,4-triazol-5-yl)benzamide]

pIC50 (SKOV3 (ovarian)): 6.22 | pIC50 (H1703 (Lung)): 6.32 | pIC50 (A549 (lung); [7]): 6.60 | pIC50 (HCT-116 (colon)): 6.88 | pIC50 (Calu-6 (lung)): 5.97 | pIC50 (LS-174T (colon)): 6.41 | pIC50 (TOV-21G (ovarian)): 6.68
SMILES: O=C(Nc1nc(NC(=O)c2ccccc2)n(-c2ccc(OC(F)(F)F)cc2)n1)c1ccccc1 [Compound Z1]
